Experimental data: patent US6358883B1, “Pesticidal and parasiticidal use of 1-aryl-1-(substituted thio, sulfinyl and sulfonyl)-2-nitroethane compounds” (American Cyanamid Company, priority 1998, dated 2002)

Assays:
Format in all cases: in vivo
[1] = tested on: C. elegans (Bristol strain); test: Evaluation of test compounds against C. elegans (motility, 96-well plate); design: key: 9=complete kill in 4 hours; 8=complete kill in 24 hours; 7=markedly reduced motility in approximately 95% of worms in 24 hours; 0=normal motility, same as controls; settings: motility at 4 and 24 hours
Procedure, shortened: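 Activity is a semi-quantitative visual score of adult and larval movement, read at 4 h and 24 h post-immersion at 20 °C after gentle tapping. Worms were suspended in Na buffer in wells where compound, dissolved in 80% acetone, had been evaporated.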

[2] = tested on: Tetranychus urticae (OP-resistant strain), 2-spotted spider mite (TSM); test: 2-spotted spider mite (TSM) plant dip test; design: key: 0 = no effect; 1 = 10-25% kill; 2 = 26-35% kill; 3 = 36-45% kill; 4 = 46-55% kill; 5 = 56-65% kill; 6 = 66-75% kill; 7 = 76-85% kill; 8 = 86-99% kill; 9 = 100% kill; settings: mortality after 2 days
Procedure, shortened: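 Mortality counted 2 days after a 3 s agitated dip of infested Sieva lima bean plants. Compound came from a 10,000 ppm stock in 35% aqueous acetone, with further dilution in water. Each primary leaf carried about 100 OP-resistant mites, allowed to settle ~2 h before dipping.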

[3] = tested on: Diabrotica undecimpunctata howardi, eggs-southern corn rootworm (SCR-Eggs); test: Southern corn rootworm eggs (SCR-Eggs) treated diet test; design: key: 0 = no effect; 1 = 10-25% kill; 2 = 26-35% kill; 3 = 36-45% kill; 4 = 46-55% kill; 5 = 56-65% kill; 6 = 66-75% kill; 7 = 76-85% kill; 8 = 86-99% kill; 9 = 100% kill; settings: mortality after 7 days
Procedure, shortened: (§1)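 Eggs of S. eridania or D. undecimpunctata howardi were set on artificial diet pretreated with test solution (10,000 ppm stock in 35% aqueous acetone, water dilutions) and dried. Wells were sealed with vented clear covers, and mortality was scored at day 7.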

[4] = tested on: Aphis gossypii, cotton aphid (CA); test: Cotton aphid (CA) cotyledon dip test; design: key: 0 = no effect; 1 = 10-25% kill; 2 = 26-35% kill; 3 = 36-45% kill; 4 = 46-55% kill; 5 = 56-65% kill; 6 = 66-75% kill; 7 = 76-85% kill; 8 = 86-99% kill; 9 = 100% kill; settings: mortality after 5 days
Procedure, shortened: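 Mortality was scored 5 days after dipping aphid-infested cotyledons, colonised overnight from a transfer leaf, into water dilutions of a 35% acetone/water compound solution.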

[5] = tested on: M. incognita (Root Knot Nematode) larvae; test: Evaluation of test compounds against M. incognita larvae in microtiter plate wells (movement score); settings: larvae scored for movement after 20-24 hours; note: key: A score of '9' indicates inactive worms with a straight, sticklike morphology; A score of '8' indicates inactive worms with a limp, curled or curved morphology; A score of '7' indicates dead/paralyzed worms after 72 hours
Procedure, shortened: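 Scoring is by larval movement: dead or paralyzed worms count as positive, and a "7" means dead/paralyzed at 72 hours. Freshly hatched root-knot larvae (50-65 per well) in buffered S Medium were incubated with compounds under plate sealers for 20-24 h before the first read.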

[6] = tested on: Spodoptera eridania, 2nd instar larvae, southern armyworm (SAW); test: Southern armyworm (SAW) leaf dip test; design: key: 0 = no effect; 1 = 10-25% kill; 2 = 26-35% kill; 3 = 36-45% kill; 4 = 46-55% kill; 5 = 56-65% kill; 6 = 66-75% kill; 7 = 76-85% kill; 8 = 86-99% kill; 9 = 100% kill
Procedure, shortened: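 Ten 2nd instar caterpillars feed on a Sieva lima bean leaf that was dipped 3 seconds in test solution (stock 10,000 ppm in 35% acetone/water, water-diluted). Five days later, larvae are assessed for death, feeding reduction or abnormal molting.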

[7] = tested on: Diabrotica virgifera virgifera Leconte, 2nd instar western corn rootworm (WCR); test: Western corn rootworm (WCR) soil test; design: key: 0 = no effect; 1 = 10-25% kill; 2 = 26-35% kill; 3 = 36-45% kill; 4 = 46-55% kill; 5 = 56-65% kill; 6 = 66-75% kill; 7 = 76-85% kill; 8 = 86-99% kill; 9 = 100% kill
Procedure, shortened: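 Ten 2nd-instar rootworm larvae are placed in jars of moist soil with millet seed and talc treated with 1.25 mg active ingredient (roughly 50 kg/ha) from a 35% acetone-in-water solution. After 5 days mortality is scored, counting missing larvae as dead.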

[8] = tested on: Spodoptera eridania, eggs-southern armyworm (SAW-Eggs); test: Southern armyworm eggs (SAW-Eggs) treated diet test; design: key: 0 = no effect; 1 = 10-25% kill; 2 = 26-35% kill; 3 = 36-45% kill; 4 = 46-55% kill; 5 = 56-65% kill; 6 = 66-75% kill; 7 = 76-85% kill; 8 = 86-99% kill; 9 = 100% kill; settings: mortality after 7 days
Procedure, shortened: as §1

Row | Compound | Rating Against C. elegans (150 ppm) [1] | TSM (300 ppm) rating [2] | SCR Eggs (1000 ppm) rating [3] | CA (300 ppm) rating [4] | M. incognita (150 ppm) score [5] | SAW (300 ppm) rating [6] | WCR (50 ppm) rating [7] | SAW Eggs (300 ppm) rating [8]
1 | COC(=O)CSC(C[N+](=O)[O-])c1cccc(C#N)c1 (racemic) [Example 98] | 8 | 3 (3 = 36-45% kill) | 0 | 0 | 0 | 5 (5 = 56-65% kill) | 0 | 0
2 | CCOC(=O)CSC(C[N+](=O)[O-])c1cccc(C#N)c1 (racemic) [Example 99] | 0 | 0 | 0 | 0 | 0 | 0 | 0 | 0
3 | CCCOC(=O)CSC(C[N+](=O)[O-])c1cccc(C#N)c1 (racemic) [Example 100] | 8 | 0 | 0 | 0 | 0 | 0 | 0 | 0
4 | CCCCOC(=O)CSC(C[N+](=O)[O-])c1cccc(C#N)c1 (racemic) [Example 101] | 0 | 0 | 0 | 0 | 9 | 0 | 0 | 0
5 | CCCOC(=O)CSC(C[N+](=O)[O-])c1ccc(OC)cc1 (racemic) [Example 102] | 9 | 0 | 0 | 0 | 9 | 0 | 0 | 0
6 | CCCOC(=O)CSC(C[N+](=O)[O-])c1cccc(OC)c1 (racemic) [Example 103] | 8 | 4 (4 = 46-55% kill) | 0 | 0 | 9 | 0 | 0 | 0
7 | CCCOC(=O)CSC(C[N+](=O)[O-])c1ccc2c(c1)OCO2 (racemic) [Example 104] | 9 | 0 | 0 | 0 | 8 | 0 | 0 | 0
8 | CCCOC(=O)CSC(C[N+](=O)[O-])c1ccccc1 (racemic) [Example 105] | 9 | 0 | 0 | 0 | 0 | 3 (3 = 36-45% kill) | 3 (3 = 36-45% kill) | 0
9 | O=C(CSC(C[N+](=O)[O-])c1ccc2c(c1)OCO2)OCc1ccccc1 (racemic) [Example 106] | 8 | 0 | 0 | 0 | 0 | 0 | 0 | 0
10 | COc1cccc(C(C[N+](=O)[O-])SCC(=O)OCc2ccccc2)c1 (racemic) [Example 107] | 0 | 0 | 0 | 0 | 0 | 0 | 0 | 0
11 | COc1ccc(C(C[N+](=O)[O-])SCC(=O)OCc2ccccc2)cc1 (racemic) [Example 108] | 8 | 0 | 0 | 0 | 9 | 0 | 0 | 9 (9 = 100% kill)
12 | O=C(O)CSC(C[N+](=O)[O-])c1ccc2ccccc2c1 (racemic) [Example 109] | 9 | 0 | 0 | 0 | 0 | 0 | 0 | 0
13 | COC(=O)CSC(C[N+](=O)[O-])c1ccc2ccccc2c1 (racemic) [Example 110] | 9 | 0 | 0 | 0 | 0 | 0 | 0 | 0
14 | CCOC(=O)CSC(C[N+](=O)[O-])c1ccc2ccccc2c1 (racemic) [Example 111] | 8 | 0 | 0 | 0 | 0 | 0 | 0 | 8 (8 = 86-99% kill)
15 | CCCOC(=O)CSC(C[N+](=O)[O-])c1ccc2ccccc2c1 (racemic) [Example 112] | 9 | 0 | 0 | 0 | 0 | 0 | 0 | 8 (8 = 86-99% kill)
16 | CCCCOC(=O)CSC(C[N+](=O)[O-])c1ccc2ccccc2c1 (racemic) [Example 113] | 9 | 0 | 0 | 0 | 0 | 3 (3 = 36-45% kill) | 0 | 9 (9 = 100% kill)
17 | O=C(CSC(C[N+](=O)[O-])c1ccc2ccccc2c1)OCc1ccccc1 (racemic) [Example 114] | 9 | 3 (3 = 36-45% kill) | 0 | 0 | 0 | 0 | 0 | 9 (9 = 100% kill)
18 | C=CCSC(C[N+](=O)[O-])c1ccccc1 (stereo not drawn) [Example 2] | 0 |  | 0 |  | 9 |  |  | 0
19 | O=[N+]([O-])CC(SCc1ccccc1)c1ccco1 (stereo not drawn) [Example 203] | 9 | 0 | 9 (9 = 100% kill) | 0 |  | 0 | 8 (8 = 86-99% kill) | 9 (9 = 100% kill)
